The text below walks through data of patent US12466856B2, “Echinocandin analogues and preparation method therefor” (SHANGHAI SENHUI MEDICINE CO., LTD., priority 2019, dated 2025).

The test system of data set [1] is Candida parapsilosis ATCC 22019. As to the kind of experiment: MIC assay (CLSI M27-A3), Candida parapsilosis ATCC 22019. In kind it is cell-based. On the procedure: (§1) After a test compound was serially diluted, an MIC (minimum inhibitory concentration) assay was performed on the standard Candida strain and an MEC (minimum effective concentration) assay on the standard Aspergillus strain. The MIC assay was performed according to the guidelines of the Clinical and Laboratory Standards Institute (CLSI M27-A3) and the MEC assay according to the guidelines of the Clinical and Laboratory Standards Institute (CLSI M38-A2).
(§2) The frozen strain was passaged at least twice, and a single colony was picked and resuspended in normal saline or sterile water in a tube. The suspension was vortexed and adjusted to 0.5 McF (1×10^6 to 5×10^6 CFU/mL) using a spectrophotometer at wavelength 530 nm. The suspension was 50-fold diluted with normal saline and then 20-fold diluted with 1×RPMI 1640 broth (1×10^3 to 5×10^3 CFU/mL). 10 μL of the suspension was applied to an SDA plate for colony counting, with a range from about 10 to 50 single colonies.
(§3) At this time, the bacterium concentration in each well should be 0.5×10^3 to 2.5×10^3 CFU/mL.
(§4) For echinocandin drugs, Aspergillus was incubated at 28° C. for 21-26 h, and then the MEC results were read.
(§5) Yeast-type fungi: A disposable sealing film was applied to the 96-well plate, and the mixture was well mixed by shaking. Observation was performed through a plate reader with the naked eye. Comparisons were made to the growth control, and the minimum compound concentration corresponding to ≥50% growth inhibition was defined as MIC. Pictures were taken and saved using an automatic plate reader.

In data set [2] the test system is Candida tropicalis (amphotericin-resistant strain) ATCC 200956. As to the kind of experiment: microbe, parasite or virus in culture. The data set is classed as cell-based. How it is done: as §1, §2, §3, §4, §5
Data set [3] has as its system Meyerozyma guilliermondii ATCC 6260. As to the kind of experiment: MIC assay (CLSI M27-A3), Meyerozyma guilliermondii ATCC 6260. In kind it is cell-based. The settings on record: first batch, 24 h, 35° C. How it is done:
as §1, §2, §3, §4, §5

In data set [4] the test system is Candida albicans ATCC 44858. As to the kind of experiment: MIC assay (CLSI M27-A3), Candida albicans ATCC 44858. In kind it is cell-based. The settings on record: second batch. On the procedure:
as §1, §2, §3, §4, §5

Data set [5] concerns Candida albicans ATCC 90028. As to the kind of experiment: MIC assay (CLSI M27-A3), Candida albicans ATCC 90028. The settings on record: second batch; for MIC: Candida albicans, ATCC90028. The data set is classed as cell-based. On the procedure:
as §1, §2
At this time, the bacterium concentration in each well should be 0.5×10^3 to 2.5×10^3 CFU/mL. […]
as §5

Data set [6] in a line: Plasma histamine assay after single intravenous injection in SD rats. The data set is classed as in vivo. How it is done: (§6) 12 SD rats were divided into 2 groups of 6 (half are male and half female). […] The body weights were measured once before administration. Administration was performed by single intravenous injection for 20 min per animal. PK measurement was performed once before administration and 5 min, 30 min, 1 h, 4 h, 8 h, 24 h, 48 h, 72 h and 96 h after administration. A histamine assay was performed once before administration and 30 min, 4 h, 8 h and 24 h after administration.

A short description of data set [7]: Pharmacokinetic study after single intravenous injection in SD rats. In kind it is in vivo. Conditions: 10 mg/kg single intravenous injection. On the procedure:
as §6

Data set [8] concerns Candida tropicalis ATCC 750. As to the kind of experiment: MIC assay (CLSI M27-A3), Candida tropicalis ATCC 750. In kind it is cell-based. Conditions: first batch, 24 h, 35° C. How it is done: as §1, §2, §3, §4, §5
Data set [9] deals with Candida albicans ATCC 90029. As to the kind of experiment: MIC assay (CLSI M27-A3), Candida albicans ATCC 90029. In kind it is cell-based. The settings on record: first batch, 24 h, 35° C., ≥50% growth inhibition. On the procedure: as §1, §2, §3, §4, §5
A further data set deals with Candida krusei ATCC 6258. As to the kind of experiment: MIC assay (CLSI M27-A3), Candida krusei ATCC 6258. In kind it is cell-based. How it is done: as §1, §2, §3, §4, §5
Data set [10] deals with Candida albicans (azole drug-resistant strain) R358. As to the kind of experiment: MIC assay (CLSI M27-A3), Candida albicans azole drug-resistant strain R358. The data set is classed as cell-based. Conditions: second batch. How it is done: as §1, §2, §3, §4, §5
For data set [11], the system named is Candida albicans (azole drug-resistant strain) R357. As to the kind of experiment: MIC assay (CLSI M27-A3), Candida albicans azole drug-resistant strain R357. The data set is classed as cell-based. The settings on record: second batch. How it is done: as §1, §2, §3, §4, §5
In data set [12] the test system is Candida glabrata ATCC 36583. As to the kind of experiment: MIC assay (CLSI M27-A3), Candida glabrata ATCC 36583. The data set is classed as cell-based. Conditions: second batch. How it is done: as §1, §2, §3, §4, §5
Data set [13] concerns Aspergillus flavus ATCC 28539. As to the kind of experiment: MEC assay (CLSI M38-A2), Aspergillus flavus ATCC 28539. The data set is classed as cell-based. The settings on record: first batch; 28° C., 21-26 h. On the procedure: The MIC assay was performed according to the guidelines of the Clinical and Laboratory Standards Institute (CLSI M27-A3) and the MEC assay according to the guidelines of the Clinical and Laboratory Standards Institute (CLSI M38-A2).
Colonies on the plate were covered with about 1 mL of 0.85% normal saline or sterile water (polysorbate 20 was added at a final concentration of 0.1%-0.01%). […] The homogeneous upper layer of the suspension was transferred to a new sterile tube, which was then sealed and vortexed for 15 s (be careful as the suspension may produce an aerosol when the cover is removed). The concentration of the suspension was adjusted until an OD value of 0.09-0.13 was achieved using a spectrophotometer at 530 nm. […] 100 μL of sample was added to each well of the 96-well plate within 2 h after dilution (the final spore concentration in the susceptibility testing plate was at 0.4×10^4 to 5×10^4 CFU/mL).
Aspergillus: For echinocandin drugs, comparisons were made to the growth control under a plate reader, and the minimum drug concentration that could cause the hyphae to form small, round, compact hyphal particles was defined as MEC. For accurate determination of MEC values, the plate must not be vortexed before reading.

Data set [14] is described as follows: General state observation after single intravenous injection in SD rats. In kind it is in vivo. The settings on record: 10 mg/kg single intravenous injection. On the procedure:
as §6

The test system of data set [15] is Candida glabrata ATCC 15126. As to the kind of experiment: MIC assay (CLSI M27-A3), Candida glabrata ATCC 15126. The data set is classed as cell-based. Conditions: first batch; 24 h, 35° C.; ≥50% growth inhibition. How it is done:
as §1, §2, §3, §4, §5

[16] abbreviates: first batch, 24 h, 35° C., quality control strain.

In general, Cmax refers to the peak of the concentration-time curve.

Like-named read-outs stand apart in the source and are kept apart here.

In the case of `CCCCCOc1ccc(-c2ccc(-c3ccc(C(=O)N[C@H]4C[C@@H](O)[C@@H](OC[C@H]5CCC[N+]5(C)C)NC(=O)[C@@H]5[C@@H](O)[C@@H](C)CN5C(=O)[C@H]([C@@H](C)O)NC(=O)[C@H]([C@H](O)[C@@H](O)c5ccc(O)cc5)NC(=O)[C@@H]5C[C@@H](O)CN5C(=O)[C@H]([C@@H](C)O)NC4=O)cc3)cc2)cc1` [Example 13], the MIC in [1] (Lodderomyces parapsilosis, ATCC22019, 24 h, read-out: MIC, Candida parapsilosis ATCC 22019) came out at 1 µg/mL; in data set [2] (Candida tropicalis, ATCC200956, read-out: MIC, Candida tropicalis (amphotericin-resistant strain) ATCC 200956) it was 0.25 µg/mL; in data set [3] (Meyerozyma guilliermondii, ATCC6260, read-out: MIC, Meyerozyma guilliermondii ATCC 6260), 1 µg/mL; in data set [4] (Candida albicans, ATCC44858, read-out: MIC, Candida albicans ATCC 44858), 0.25 µg/mL; in data set [5] (24 h, 35° C., read-out: MIC, Candida albicans ATCC 90028), 0.25 µg/mL; in data set [5] (+ 50% human serum, read-out: MIC, Candida albicans + 50% human serum ATCC 90028) it was 0.25 µg/mL. Besides, the MIC in data set [8] (Candida tropicalis, ATCC750, read-out: MIC, Candida tropicalis ATCC 750) was found to be 0.016 µg/mL; in data set [9] (Candida albicans, ATCC90029, read-out: MIC, Candida albicans ATCC 90029), 0.031 µg/mL; with Candida krusei ATCC 6258 (Pichia kudriavzevii, ATCC6258, 24 h, read-out: MIC, Candida krusei ATCC 6258) it was 0.047 µg/mL; in [10] (Candida albicans, read-out: MIC, Candida albicans (azole drug-resistant strain) R358), 0.25 µg/mL; in [11] (Candida albicans, read-out: MIC, Candida albicans (azole drug-resistant strain) R357) it was 0.5 µg/mL; in [12] (Nakaseomyces glabratus, ATCC36583, read-out: MIC, Candida glabrata ATCC 36583) it was 0.5 µg/mL. For the same compound, the “ability to induce increases in the histamine level in rats” value in [6] (same dose (10 mg/kg), single intravenous injection, versus rezafungin acetate) is “significantly lower than that of rezafungin acetate”. Besides, the MRTIV in data set [7] (female SD rats) came to 34.6 h; in data set [7] (male SD rats), 37.1 h.
For Rezafungin acetate, the “MIC, Candida parapsilosis ATCC 22019” value in data set [1] (setting [16]) came to 2 µg/mL. Further, the “MIC, Candida tropicalis (amphotericin-resistant strain) ATCC 200956” value in data set [2] (second batch) is 0.25 µg/mL. The “MIC, Meyerozyma guilliermondii ATCC 6260” value in data set [3] amounted to 2 µg/mL. The “MIC, Candida albicans ATCC 44858” value in data set [4] worked out at 0.25 µg/mL. The “MEC, Aspergillus flavus ATCC 28539” value in data set [13] was 0.031 µg/mL. In addition, the general state observation entry in data set [14] is reported as “transient slight decrease in activity”. Besides, the “MIC, Candida albicans ATCC 90028” value in data set [5] (24 h, 35° C.) came to 0.25 µg/mL. Also, the “MIC, Candida albicans + 50% human serum ATCC 90028” value in data set [5] (+ 50% human serum) turned out to be 0.25 µg/mL. Also, the “mean plasma histamine concentration relative to group 1” value in [6] (SD rats, 10 mg/kg i.v., 30 min after administration, p=0.046) was 4.5 times. The “time at which plasma histamine concentration peaked” value in data set [6] (SD rats, 10 mg/kg single intravenous injection) turned out to be 30 min. Also, the “mean histamine concentration in the plasma” value in [6] (SD rats, 10 mg/kg single intravenous injection, 30 min after administration) came to 1333.0 ng/mL. Also, in [7] (female SD rats), the AUC0-96 was determined as 205.8 µg·h/mL, the AUC0-inf came out at 227.2 µg·h/mL, the CL worked out at 0.8 mL/min/kg and the maximum concentration (Cmax) worked out at 8600 ng/mL. Moreover, in [7] (female SD rats), the MRTIV was 39.1 h, the T1/2 is 27.9 h and the VdSS came out at 1.8 L/kg. In data set [7] (male SD rats), the AUC0-96 was found to be 190.5 µg·h/mL, the AUC0-inf was found to be 212.1 µg·h/mL, the CL is 0.8 mL/min/kg and the Cmax was found to be 7800 ng/mL. In data set [7] (male SD rats), the MRTIV worked out at 38.4 h, the T1/2 came to 28.0 h and the VdSS is 1.8 L/kg. Also, the “MIC, Candida glabrata ATCC 15126” value in data set [15] came out at 0.125 µg/mL. The “MIC, Candida tropicalis ATCC 750” value in data set [8] is 0.016 µg/mL. In data set [9], the “MIC, Candida albicans ATCC 90029” value came out at 0.125 µg/mL. Further, the “MIC, Candida krusei ATCC 6258” value with Candida krusei ATCC 6258 (setting [16]) was found to be 0.25 µg/mL. Further, the “MIC, Candida albicans (azole drug-resistant strain) R358” value in [10] amounted to 0.25 µg/mL. The “MIC, Candida albicans (azole drug-resistant strain) R357” value in data set [11] is 0.25 µg/mL. In [12], the “MIC, Candida glabrata ATCC 36583” value amounted to 0.25 µg/mL.
